Earlier results in article PMC11226190 (Drug Design, Development and Therapy, 2024).

Settings: comparable publication

Question: Which “second order rate constant, DTNB assay” value does the source give for NC(=O)CI [Iodoacetamide] here?
Answer: The value was 2.5 M⁻¹ s⁻¹.
